{"source": "patent US9198965B2", "about": "(priority 2008, dated 2015)", "key": {"PR/8 virus [1]": {"tested_on": "PR/8 virus", "test": "Sedimentation density profiles (density gradient ultracentrifugation) of peptide-treated virus", "parameters": "species or system A/PuertoRico/8/34 (PR/8, H1N1)", "conditions": "EB peptide-treated samples (10 μM, 30 μM)"}, "RAW 264.7 macrophages": {"tested_on": "RAW 264.7 macrophages", "test": "Association of FITC-labeled virus with macrophages by flow cytometry", "type": "cell-based", "conditions": "virus treated with 10 μM EB; compared to 0 μM"}, "VN/1203 [2]": {"tested_on": "VN/1203", "test": "Virus specific IgG ELISA after vaccination with inactivated VN/1203 (Example 3)", "type": "in vivo, Balb/C mice", "conditions": "28 days post-vaccination; EB at all concentrations (10 μM, 50 μM, 0.5 mM, 1 mM); i.m., boost day 15"}, "VN/1203 [3]": {"tested_on": "VN/1203", "type": "in vivo, Balb/C mice"}, "VN/1203 [4]": {"tested_on": "VN/1203", "type": "in vivo, Balb/C mice", "conditions": "suboptimal dose vaccine"}, "VN/1203 [5]": {"tested_on": "VN/1203", "test": "Influenza-specific total IgG, IgG1, IgG2 ELISA after suboptimal dose VN/1203 vaccine (Example 5)", "parameters": "species or system Balb/C mice", "conditions": "mouse, in vivo"}, "VN/1203 virus [6]": {"tested_on": "VN/1203 virus", "test": "Microneutralization assay of sera, suboptimal dose VN/1203 vaccine (Example 5)", "parameters": "species or system Balb/C mice", "conditions": "mouse, in vivo"}, "PR/8 virus [7]": {"tested_on": "PR/8 virus", "type": "in vivo, Balb/C mice", "conditions": "suboptimal dose PR/8 vaccine"}, "PR/8 virus [8]": {"tested_on": "PR/8 virus", "test": "Influenza-specific neutralizing antibodies in sera, suboptimal dose PR/8 vaccine (Example 6)", "type": "in vivo, Balb/C mice", "conditions": "day 15 post-vaccination; pooled serum; values <40 negative"}, "VN/1203 virus [9]": {"tested_on": "VN/1203 virus", "type": "in vivo, Balb/C mice", "conditions": "day 15 and 28 post-vaccination; inactivated VN/1203; EB 200 μM"}, "PR/8 virus [10]": {"tested_on": "PR/8 virus", "test": "Splenocyte IFN-γ ELISpot assay, PR/8 vaccine (Example 8)", "type": "in vivo, Balb/C mice", "conditions": "day 15 post-vaccination; inactivated PR/8; EB 50 μM or 200 μM"}, "influenza viruses": {"tested_on": "influenza viruses", "conditions": "in vitro; cited from earlier work"}, "H5N1 influenza virus": {"tested_on": "H5N1 influenza virus", "conditions": "mouse, in vivo; cited from earlier work"}, "influenza virus": {"tested_on": "influenza virus", "conditions": "cited from earlier work"}}, "note": "Read-outs that look alike come from different tables or passages of the source.", "data": [{"sequence": "RRKKAAVALLPAVLLALLAP [EB]", "values": [{"measurement": "HA activity as compared to virus alone", "setting": "PR/8 virus [1]", "value": "considerably lower"}, {"measurement": "shift in macrophage association peak of FITC-PR/8", "setting": "RAW 264.7 macrophages", "value": "minimal shift"}, {"measurement": "virus specific IgG titers compared to inactivated virus alone or alum adjuvanated vaccine", "setting": "VN/1203 [2]", "value": "increased"}, {"measurement": "weight change compared to day 0 of challenge", "setting": "VN/1203 [3]; […], EB 10 μM, 50 μM, 0.5 mM or 1 mM, alum 0.5 mg/ml", "value": "weight increase"}, {"measurement": "infectious virus in lungs (TCID50 on MDCK cells)", "setting": "VN/1203 [3]; […], VN/1203 pretreated with 50 μM or greater amounts of EB", "value": "no detectable infectious virus"}, {"measurement": "infectious virus in lungs (TCID50 on MDCK cells)", "setting": "VN/1203 [3]; day 10, any of the groups vaccinated with inactivated VN/1203 and EB", "value": "no detectable infectious virus"}, {"measurement": "weight loss", "setting": "VN/1203 [4]; 200 μM EB, no boost", "value": "little to no weight loss"}, {"measurement": "weight loss", "setting": "VN/1203 [4]; 200 μM EB, with boost", "value": "little to no weight loss"}, {"measurement": "score for clinical signs of infection (0-3)", "setting": "VN/1203 [4]; 200 μM EB, without boost", "value": 1}, {"measurement": "survival rate", "setting": "VN/1203 [4]; EB 50 μM", "value": "> 60", "unit": "%"}, {"measurement": "score for clinical signs of infection (0-3)", "setting": "VN/1203 [4]; peptide 200 μM, with boost", "value": 0}, {"measurement": "total IgG, IgG1, and IgG2 levels versus suboptimal dose of VN/1203 alone", "setting": "VN/1203 [5]", "value": "the same"}, {"measurement": "virus neutralizing antibody titers (microneutralization)", "setting": "VN/1203 virus [6]", "value": "negative"}, {"measurement": "survival rate", "setting": "PR/8 virus [7]; EB 50 μM", "value": 100, "unit": "%"}, {"measurement": "survival rate", "setting": "PR/8 virus [7]; EB 200 μM", "value": 100, "unit": "%"}, {"measurement": "influenza-specific neutralizing antibody titers", "setting": "PR/8 virus [8]", "value": "negative"}, {"measurement": "IFN-γ levels (IFN-γ secreting splenocytes)", "setting": "VN/1203 virus [9]", "value": "increases"}, {"measurement": "IFN-γ levels (IFN-γ secreting splenocytes)", "setting": "PR/8 virus [10]", "value": "increases"}, {"measurement": "concentrations at which EB inhibits virus replication", "setting": "influenza viruses", "value": "≥ 10", "unit": "µM"}, {"measurement": "clinical signs of H5N1 influenza virus infection", "setting": "H5N1 influenza virus", "value": "prevented clinical signs"}, {"measurement": "survival", "setting": "H5N1 influenza virus", "value": "increased survival"}, {"measurement": "influenza virus attachment to cells", "setting": "influenza virus", "value": "inhibited"}]}, {"sequence": "RRKKLPAVLLALLAP [SEQ ID NO: 4 peptide, derivative of EB retaining RRKK tag with 5 amino acid residues removed from the N-terminus]", "values": [{"measurement": "weight loss", "setting": "VN/1203 [4]; peptide 200 μM", "value": "around 20%"}, {"measurement": "score for clinical signs of infection (0-3)", "setting": "VN/1203 [4]; peptide 200 μM, with boost", "value": 2}]}]}
